# Earlier results in patent US9468626B2, “Melatonin-based formulations for parenteral administration” (CHIESI FARMACEUTICI S.p.A., priority 2014, dated 2016).
# Columns and labels:
# [1] = exposed to light or oxygen
# newborn piglets = details: intravenously, 5 mg/kg/h
# [2] = in vivo
structure (smiles),measurement,setting,value
"COc1ccc2[nH]cc(CCNC(C)=O)c2c1 [melatonin, N-[2-(5-Methoxy-1H-indol-3-yl)ethyl]acetamide]",stability in aqueous solution,[1],not stable when exposed to light or oxygen
same,hypothermic neuroprotection,newborn piglets,increases hypothermic neuroprotection
same,solubility in water,,poorly soluble in water
same,oral bioavailability,[2],low and very variable
